Reference: ChEMBL document CHEMBL1201862, “PubChem BioAssay data set” (2004)
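Test compounds were applied to cells in 96-well plates for 48 hours at 5 doses. The concentration for 50% growth inhibition is given as GI50.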 The source made the active and inactive calls. Cut-off read from the data, not from the text of the source: active = GI50 up to about 1.1 µM and inactive = higher.

Legend:
Assay in all cases: NCI anticancer screen, dose series, 48 h
COLO 205 = system: COLO 205
MDA-MB-231 = system: MDA-MB-231
UACC-257 = system: UACC-257
DU-145 = system: DU-145
SW-620 = system: SW-620
HT-29 = system: HT-29
UACC-62 = system: UACC-62
KM12 = system: KM12
HOP-62 = system: HOP-62
SF-268 = system: SF-268
TK-10 = system: TK-10
HCT-116 = system: HCT-116
RXF 393 = system: RXF 393
OVCAR-8 = system: OVCAR-8
786-0 = system: 786-0
RPMI-8226 = system: RPMI-8226
Malme-3M = system: Malme-3M
SK-MEL-2 = system: SK-MEL-2
OVCAR-3 = system: OVCAR-3
A498 = system: A498

SMILES	GI50 (COLO 205)	GI50 (MDA-MB-231)	GI50 (UACC-257)	GI50 (DU-145)	GI50 (SW-620)	GI50 (HT-29)	GI50 (UACC-62)	GI50 (KM12)	GI50 (HOP-62)	GI50 (SF-268)	GI50 (TK-10)	GI50 (HCT-116)	GI50 (RXF 393)	GI50 (OVCAR-8)	GI50 (786-0)	GI50 (RPMI-8226)	GI50 (Malme-3M)	GI50 (SK-MEL-2)	GI50 (OVCAR-3)	GI50 (A498)
C[C@@H]1C[C@H](O)[C@]2(O)O[C@@H]3C[C@@]4(C=O)[C@@H](CC[C@@H]5[C@@H]4CC[C@]4(C)[C@@H](C6=CC(=O)OC6)CC[C@]54O)C[C@H]3O[C@@H]2O1 [CALOTROPIN]	0.0726 µM (active)	0.221 µM (active)	0.0592 µM (active)	0.0134 µM (active)	0.0247 µM (active)	0.0425 µM (active)	0.0718 µM (active)	0.0809 µM (active)	0.0244 µM (active)	0.0406 µM (active)	0.0254 µM (active)	0.0193 µM (active)	0.0176 µM (active)	0.0348 µM (active)	0.0156 µM (active)	0.0246 µM (active)	0.0167 µM (active)	0.0436 µM (active)	0.0182 µM (active)	0.0531 µM (active)
C#CCOC(=O)C(N)CS (stereo not given)	> 100 µM (inactive)	> 100 µM (inactive)	> 100 µM (inactive)	> 100 µM (inactive)	> 100 µM (inactive)	> 100 µM (inactive)	> 100 µM (inactive)	> 100 µM (inactive)	> 100 µM (inactive)	> 100 µM (inactive)	> 100 µM (inactive)	> 100 µM (inactive)	> 100 µM (inactive)	> 100 µM (inactive)	> 100 µM (inactive)	> 100 µM (inactive)	> 100 µM (inactive)	> 100 µM (inactive)	> 100 µM (inactive)	> 100 µM (inactive)
Cc1ccc2c(O)cc(-c3ccc(Cl)cc3)nc2n1	1.85 µM (inactive)	5.52 µM (inactive)	15.6 µM (inactive)	6.05 µM (inactive)	5.08 µM (inactive)	3.3 µM (inactive)	5.15 µM (inactive)	4.57 µM (inactive)	9.16 µM (inactive)	27 µM (inactive)	21.2 µM (inactive)	3.1 µM (inactive)	27.2 µM (inactive)	9.33 µM (inactive)	5.38 µM (inactive)	1.87 µM (inactive)	3.74 µM (inactive)	3.98 µM (inactive)	3.1 µM (inactive)	9.73 µM (inactive)
CCOc1ccc2nc3cc(/N=N/c4ccc(N)nc4N)ccc3c(N)c2c1	1.86 µM (inactive)	1.54 µM (inactive)	19.1 µM (inactive)	6.65 µM (inactive)	2.51 µM (inactive)	3.5 µM (inactive)	14.8 µM (inactive)	3.37 µM (inactive)	3.75 µM (inactive)	1.64 µM (inactive)	13.9 µM (inactive)	1.66 µM (inactive)	2.19 µM (inactive)	2.73 µM (inactive)	1.46 µM (inactive)	20 µM (inactive)	4.45 µM (inactive)	2.1 µM (inactive)	1.53 µM (inactive)	8.89 µM (inactive)
Cc1cc(C)c(O)c(Cc2cccc(Cc3cc(C)cc(C)c3O)c2O)c1	> 100 µM (inactive)	> 100 µM (inactive)	> 100 µM (inactive)	> 100 µM (inactive)	> 100 µM (inactive)	> 100 µM (inactive)	> 100 µM (inactive)	> 100 µM (inactive)	> 100 µM (inactive)	> 100 µM (inactive)	> 100 µM (inactive)	> 100 µM (inactive)	> 100 µM (inactive)	> 100 µM (inactive)	> 100 µM (inactive)	> 100 µM (inactive)	> 100 µM (inactive)	> 100 µM (inactive)	> 100 µM (inactive)	> 100 µM (inactive)
CC(C)C1=CCC2C(=C1)CCC1C(C)(C(=O)O)CCCC21C (stereo not given)	> 100 µM (inactive)	> 100 µM (inactive)	> 100 µM (inactive)	> 100 µM (inactive)	> 100 µM (inactive)	78.5 µM (inactive)	> 100 µM (inactive)	92.3 µM (inactive)	> 100 µM (inactive)	> 100 µM (inactive)	> 100 µM (inactive)	> 100 µM (inactive)	> 100 µM (inactive)	> 100 µM (inactive)	> 100 µM (inactive)	19.9 µM (inactive)	> 100 µM (inactive)	> 100 µM (inactive)	> 100 µM (inactive)	> 100 µM (inactive)
